Data set [1] in a line: Absorbance of the adducts with butylamine in acetonitrile. Type of data set: physicochemical. To be noted: Bioconjugated molecule (BuNH2) in CH3CN; for λ UV (nm), second maximum: longer-wavelength absorption maximum, used for excitation; for λ UV (nm), first maximum: shorter-wavelength absorption maximum. On the procedure:
(§1) Apparatus: • Acetonitrile: VWR HPLC quality • Micropipette: 5 μl, 10 μl, 200 μl, 1000 μl, • Eppendorf: Safe lock tube PCR • UV cuvette: Varian-Quartz 10 mm thick • Fluorescence cuvette: Hellma-Quartz 10 mm thick • Vortex: Bender & Hobein-Genie 2 • Centrifuge: Baky Bug • Absorbance spectrophotometer: Varian-Cary 50 scan • Fluorescence spectrophotometer: Varian-Cary Eclipse • Thermostated bath: Varian-Cary single cell peltier accessory Stock Solution:
(§2) Approximately exactly 1 to 2 mg of compound Ia-Io are weighed out in a 1.5 mL Eppendorf tube. The stock solutions are then prepared by adding exactly 1 mL of acetonitrile and the Eppendorf tubes are then stored protected from light.
30 μl of stock solution are placed in a 1.5 mL Eppendorf tube. At room temperature, 10 μl (or 30 μl in the case of Ik) of a 0.15 M solution of butylamine/acetonitrile are added and the medium is stirred by vortex and then centrifuged. After diluting to 1 mL by adding 960 μl of acetonitrile (or 940 μl in the case of Ik), the clear solution is transferred into a UV cuvette and then made up to 2 mL with acetonitrile. The analysis is then performed after producing a “blank” spectrum with a pure acetonitrile solution.

The nature of data set [2]: Fluorescence of the adducts with butylamine in acetonitrile. Type of data set: physicochemical. As to conditions: Bioconjugated molecule (BuNH2) in CH3CN; for Δ Stokes: emission minus excitation wavelength; for λ fluo (λ excitation) (nm): excitation at maximum-absorption wavelength; for Intensity normalized to 50 μM: fluorescence intensity. The arrangement: Δ Stokes: unit not given here. On the procedure: as §1, §2
Two protocols were implemented for the fluorescence tests. • For compounds Ii-Ik: 125 μL of the preceding solution (absorbance solution) are diluted to 1.25 mL by adding 1125 μl of acetonitrile to a fluorescence cuvette. The analysis is then performed on the fluorescence spectrophotometer by excitation at the respective maximum-absorption wavelengths. • For compounds Ia-Ih and Il-Io: 1250 μl of the preceding solution (absorbance) are placed in a fluorescence cuvette. The analysis is then performed on the fluorescence spectrophotometer by excitation at the respective maximum-absorption wavelengths.

Data set [3] can be described thus: Photobleaching of stained standard proteins in gel under UV transilluminator. Type of data set: physicochemical. To be noted: protein-stained gel, first-order exponential decay fit, deduced from FIG. 1. On the procedure: The compounds were dissolved at 10 mg/mL in DMSO. The stock solutions obtained were diluted to 1 mg/mL in water and divided into 100 μL aliquots for storage. All the products and aliquots were stored at −80° C.
Standard proteins (SDS labeling kit-low molecular weight sold by GE, 17-0446-01) were diluted in an LDS buffer (250 μL Invitrogen 4×LDS buffer, 100 μL of 1 M DDT, 650 μL of water) to create serial dilutions ranging from 128 ng/STI band to 125 pg/STI band.
5 μL of each protein solution were loaded onto NuPAGE® Novex® 12% bis-tris gels (1.0 mm thick, 12 wells, Invitrogen NP0342BOX). The gels were subjected to a current of 150 V for approximately 65 minutes using MES buffer (50 mM MES, 50 mM tris, 1 mM EDTA, 0.1% SDS, pH 7.3) so that the buffer front arrives just up to the gel. After eluting the dye, the gels were fixed for 1 to 17 hours (100 mL of fixing solution with 15% EtOH (v/v) and 1% citric acid) in individual lanes. The fixing solution used was replaced with fresh solution one hour after staining. The gels were stained for 1 hour in 50 mL of sodium borate buffer at 100 mM (pH 10.9) containing either […] of LavaPurple gel dye (Fluorotechnics; LP-011005) or one of the test compounds (50 μL for a 1 mg/mL solution). The gels were treated with 100 mL of 15% ethanol and then washed with 100 mL of fixing solution for 30 minutes.
Imaging was performed using a Typhoon Trio imager (excitation: 532 nm, emission filter: 610BP30, 540 PMT, resolution: 100 μm) using a normal sensitivity. The recorded image corresponds to the scan at time zero. The gels were then placed in a UV transilluminator for 60, 146, 240, 330, 630 and 990 seconds (total exposure time), a Typhoon scanner image being recorded between each exposure. The volumes of the bands were analyzed using the Image-Quant TL software, and all the band volumes were normalized with phosphorylase B. The photobleaching was analyzed by graphically representing the band volumes as a function of the exposure time (GraphPad Prism v4 software) and by fitting the curve to a first-order exponential decay to determine a pseudofirst-order rate constant.
FIG. 1 represents the decrease of the normalized residual signal of compounds (Ii), (Ij), (Ik), (In) and (Io) according to the invention and of epicocconone.
From this FIGURE, the half-life times of the compounds may be deduced: […]

The conditions of data set [4]: cited from earlier work.
The conditions of data set [5]: water and lipid bilayers; cited from earlier work.

In the case of `CC1(C)CC2=CC3=C(/C(O)=C/C(=O)c4ccc(Cl)nc4)C(=O)OC3(C)C(=O)C2=CO1` (stereo not drawn) [In, 3-[3-(6-chloro-pyridin-3-yl)-1-hydroxy-3-oxopropenyl]-6,6,9a-trimethyl-5,6-dihydro-9aH-furo[3,2-g]isochromene-2,9-dione], in data set [1], the “λ UV (nm), second maximum” value came to 525 nm and the “λ UV (nm), first maximum” value came to 363 nm. Moreover, in data set [2], the “Δ Stokes” value is 87, the “λ fluo (λ excitation) (nm)” value is recorded as 612 nm and the “Intensity normalized to 50 μM” value is reported as 2764. The “Half-life time” value in data set [3] was 33.1 min.
As for `C/C=C/C=C/C=C/C(=O)/C=C(\O)C1=C2C=C3C[C@@H](CO)OC=C3C(=O)[C@@]2(C)OC1=O` [epicocconone, 5,6-dihydro-3-[(1Z,4E,6E,8E)-1-hydroxy-3-oxo-1,4,6,8-decatetraenyl]-6-hydroxymethyl-9a-methyl-2H-furo[3,2g][2]benzopyran-2,9-(9aH)-dione, reference compound], in data set [1], the “λ UV (nm), second maximum” value is 515 nm and the “λ UV (nm), first maximum” value was determined as 388 nm. In data set [2], the “Δ Stokes” value is 95, the “λ fluo (λ excitation) (nm)” value is 610 nm and the “Intensity normalized to 50 μM” value worked out at 3950. Moreover, in data set [3], the “Half-life time” value was 11.3 min. Besides, the “fluorescence emission wavelength of enamine adduct” value in data set [4] (adduct with amine functions, UV-Vis radiation, for example at 395 nm or 520 nm) is given as “about 600 nm”. Further, the Stokes shift result in data set [4] (difference between absorption and emission wavelength) is “about 100 nm”. The solubility entry in data set [5] was “good solubility both in water and in lipid bilayers”.

The values above are taken from US8669378B2, “Process for synthesizing epicconone analogs” (Universite de Rouen, priority 2009, dated 2014).
